Experimental data published in PubChem BioAssay (NCI).
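How tested: cells in 96-well plates exposed to compound for 48 hours at five concentrations. TGI marks complete inhibition of growth.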

Tests used:
Test in all cases: NCI anticancer screen, dose series, 48 h
PC-3 prostate = tested on: PC-3 prostate
OVCAR-4 ovarian = tested on: OVCAR-4 ovarian
A498 renal = tested on: A498 renal
MALME-3M melanoma = tested on: MALME-3M melanoma
786-0 renal = tested on: 786-0 renal
CCRF-CEM leukemia = tested on: CCRF-CEM leukemia
BT-549 breast = tested on: BT-549 breast
SNB-75 CNS = tested on: SNB-75 CNS
HT29 colon = tested on: HT29 colon
SK-MEL-5 melanoma = tested on: SK-MEL-5 melanoma
SF-539 CNS = tested on: SF-539 CNS
SK-MEL-28 melanoma = tested on: SK-MEL-28 melanoma
NCI-H460 lung = tested on: NCI-H460 lung
HOP-92 NSCLC = tested on: HOP-92 NSCLC
KM12 colon = tested on: KM12 colon
COLO 205 colon = tested on: COLO 205 colon
UACC-62 melanoma = tested on: UACC-62 melanoma
OVCAR-5 ovarian = tested on: OVCAR-5 ovarian
CAKI-1 renal = tested on: CAKI-1 renal
MDA-N = tested on: MDA-N
UO-31 renal = tested on: UO-31 renal
HOP-62 NSCLC = tested on: HOP-62 NSCLC
SR leukemia = tested on: SR leukemia
RXF 393 renal = tested on: RXF 393 renal
U251 CNS = tested on: U251 CNS
MDA-MB-231 breast = tested on: MDA-MB-231 breast
SK-OV-3 ovarian = tested on: SK-OV-3 ovarian
HL-60(TB) leukemia = tested on: HL-60(TB) leukemia
NCI-H226 lung = tested on: NCI-H226 lung
SK-MEL-2 melanoma = tested on: SK-MEL-2 melanoma
MCF7 breast = tested on: MCF7 breast
OVCAR-3 ovarian = tested on: OVCAR-3 ovarian
T-47D breast = tested on: T-47D breast
SW-620 colon = tested on: SW-620 colon
SF-295 CNS = tested on: SF-295 CNS
MOLT-4 leukemia = tested on: MOLT-4 leukemia
M14 melanoma = tested on: M14 melanoma
EKVX NSCLC = tested on: EKVX NSCLC
A549 NSCLC = tested on: A549 NSCLC
NCI/ADR-RES ovarian = tested on: NCI/ADR-RES ovarian
MDA-MB-435 = tested on: MDA-MB-435
IGROV1 ovarian = tested on: IGROV1 ovarian
UACC-257 melanoma = tested on: UACC-257 melanoma
HCT-15 colon = tested on: HCT-15 colon
HS 578T breast = tested on: HS 578T breast
K-562 leukemia = tested on: K-562 leukemia
OVCAR-8 ovarian = tested on: OVCAR-8 ovarian
NCI-H522 lung = tested on: NCI-H522 lung
ACHN renal = tested on: ACHN renal
DU-145 prostate = tested on: DU-145 prostate
RPMI-8226 leukemia = tested on: RPMI-8226 leukemia
HCT-116 colon = tested on: HCT-116 colon
SNB-19 CNS = tested on: SNB-19 CNS
SN12C renal = tested on: SN12C renal
NCI-H23 lung = tested on: NCI-H23 lung
SF-268 CNS = tested on: SF-268 CNS

Cc1[nH]c(-c2ccccc2)c(O)c1C(=O)OC12CC3CC(CC(C3)C1)C2
TGI (PC-3 prostate): 28.9 µM | TGI (OVCAR-4 ovarian): 34.4 µM | TGI (A498 renal): 35 µM | TGI (MALME-3M melanoma): 28 µM | TGI (786-0 renal): 27 µM | TGI (CCRF-CEM leukemia): > 100 µM | TGI (BT-549 breast): 31.8 µM | TGI (SNB-75 CNS): 23.1 µM | TGI (HT29 colon): 17.2 µM | TGI (SK-MEL-5 melanoma): 28 µM | TGI (SF-539 CNS): 23.7 µM | TGI (SK-MEL-28 melanoma): 27.8 µM | TGI (NCI-H460 lung): 21.3 µM | TGI (HOP-92 NSCLC): 34.8 µM | TGI (KM12 colon): 19.3 µM | TGI (COLO 205 colon): 27 µM | TGI (UACC-62 melanoma): 32.8 µM | TGI (OVCAR-5 ovarian): 26.8 µM | TGI (CAKI-1 renal): 35.4 µM | TGI (MDA-N): 31.2 µM | TGI (UO-31 renal): 32.6 µM | TGI (HOP-62 NSCLC): 28.1 µM | TGI (SR leukemia): 44 µM | TGI (RXF 393 renal): 20.1 µM | TGI (U251 CNS): 28.2 µM | TGI (MDA-MB-231 breast): 33.1 µM | TGI (SK-OV-3 ovarian): 28.1 µM | TGI (HL-60(TB) leukemia): > 100 µM | TGI (NCI-H226 lung): 27.1 µM | TGI (SK-MEL-2 melanoma): 31.3 µM | TGI (MCF7 breast): 28 µM | TGI (OVCAR-3 ovarian): 27.8 µM | TGI (T-47D breast): 29.5 µM | TGI (SW-620 colon): 29.7 µM | TGI (SF-295 CNS): 14.1 µM | TGI (MOLT-4 leukemia): 32.3 µM | TGI (M14 melanoma): 24.9 µM | TGI (EKVX NSCLC): 27 µM | TGI (A549 NSCLC): 25.7 µM | TGI (NCI/ADR-RES ovarian): 27.3 µM | TGI (MDA-MB-435): 28.6 µM | TGI (IGROV1 ovarian): 27.4 µM | TGI (UACC-257 melanoma): 31.2 µM | TGI (HCT-15 colon): 27.4 µM | TGI (HS 578T breast): 25.9 µM | TGI (K-562 leukemia): > 100 µM | TGI (OVCAR-8 ovarian): 25.8 µM | TGI (NCI-H522 lung): 22.9 µM | TGI (ACHN renal): 29.7 µM | TGI (DU-145 prostate): 29.3 µM | TGI (RPMI-8226 leukemia): > 100 µM | TGI (HCT-116 colon): 30.4 µM | TGI (SNB-19 CNS): 28.3 µM | TGI (SN12C renal): 30.1 µM | TGI (NCI-H23 lung): 31.6 µM | TGI (SF-268 CNS): 27.2 µM
